Test results reported in US20210395210A1, “INHIBITION OF BACTERIAL CHAPERONIN SYSTEMS” (THE TRUSTEES OF INDIANA UNIVERSITY, priority 2018, published 2021).
Like-named read-outs stand apart in the source and are kept apart here.

Tests used:
[1] = tested on: Enterobacter cloacae (ATCC 13047); assay: Bacterial proliferation assay, E. cloacae; assay type: cell-based
From the text: (§1) Bacterial Strains: Enterococcus faecium—(Orla-Jensen) Schleifer and Kilpper-Balz strain NCTC 7171 (ATCC 19434); Drug sensitive Staphylococcus aureus—Rosenbranch strain Seattle 1945 (ATCC 25923); Methicillin resistant S. aureus (MRSA)—Rosenbach strain HPV107 (ATCC BAA-44); Klebsiella Pneumonia—(Schroeter) Trevisan strain NCTC 9633 (ATCC 13883); Acinetobacter baumannii—Bouvet and Grimont strain 2208 (ATCC 19606); Pseudomonas aeruginosa—(Schroeter) Migula strain NCTC 10332 (ATCC 10145); Enterobacter cloacae—E. cloacae, subsp. cloacae (Jordan) Hormaeche and Edwards strain CDC 442-68 (ATCC 13047).
(§2) Growth Media: All bacteria were grown in Brain Heart Infusion (BHI) broth/agar (Becton, Dickinson and Company). All liquid cultures were grown in BHI media supplemented with 25 mg/L Ca^2+ and 12.5 mg/L Mg^2+ to mimic free physiological concentrations of these cations. A 10 mg/mL Ca^2+ stock solution was prepared by dissolving 3.68 g of CaCl2.2H2O in 100 mL of deionized water, and a 10 mg/mL Mg^2+ stock solution was prepared by dissolving 8.36 g of MgCl2.6H2O in 100 mL deionized water. Both stock solutions were filter-sterilized using 0.2 μm pore size cellulose-acetate filters. 2.5 mL of the sterile 10 mg/mL Ca^2+ stock and 1.25 mL of the sterile 10 mg/mL Mg^2+ stock solutions were added per 1 L of autoclaved BHI medium to obtain 25 mg/L Ca^2+ and 12.5 mg/L Mg^2+ ions, respectively.
(§3) General Assay Protocol: Stock bacterial cultures were streaked onto BHI agar plates and grown overnight at 37° C. Fresh aliquots of broth were inoculated with single bacterial colonies and the cultures were grown overnight at 37° C. with shaking (240 rpm) in cation adjusted BHI media. The following morning, the overnight cultures were sub-cultured (1:5 dilution) into fresh aliquots of cation adjusted BHI media and grown at 37° C. for 1-2 hours with shaking. After 2 h, cultures were diluted into fresh media to achieve final OD600 readings of 0.017. Aliquots of these diluted cultures (30 μL) were added to clear, flat-bottom, 384-well polystyrene plates that were stamped with 0.5 μL of test compounds in 20 μL media. […] Plates were sealed with “Breathe Easy” oxygen permeable membranes (Diversified Biotech) and left to incubate at 37° C. without shaking (stagnant assay). OD600 nm readings were taken at either 6-8 h (S. aureus, MRSA, K. pneumonia, E. cloacae, and P. aeruginosa) or 24 h (E. faecium and A. baumannii). A second set of baseline control plates were prepared analogously, but without any bacteria added, to correct for possible compound absorbance and/or precipitation. Plates were then read at 600 nm using a Molecular Devices SpectraMax Plus384 microplate reader. […] Results presented represent the averages of EC50 values obtained from at quadriplicate (duplicate of duplicate) replicates.

[2] = tested on: Klebsiella Pneumonia (ATCC 13883); assay: Bacterial proliferation assay, K. pneumoniae; assay type: cell-based
From the text: as §1, §2, §3

[3] = molecular target: T1, native MDH (Sus scrofa, UniProt P00346); assay: Counter-screen for inhibition of native MDH enzymatic activity; assay type: biochemical, pig; conditions: for inhibition of native MDH enzymatic activity (in words): false-positive counter-screen
T1 construct: soluble pig heart MDH from Roche, product #10127248001; purchased Roche 10127248001; host or cells: pig heart
T1 sequence (P00346 25-338): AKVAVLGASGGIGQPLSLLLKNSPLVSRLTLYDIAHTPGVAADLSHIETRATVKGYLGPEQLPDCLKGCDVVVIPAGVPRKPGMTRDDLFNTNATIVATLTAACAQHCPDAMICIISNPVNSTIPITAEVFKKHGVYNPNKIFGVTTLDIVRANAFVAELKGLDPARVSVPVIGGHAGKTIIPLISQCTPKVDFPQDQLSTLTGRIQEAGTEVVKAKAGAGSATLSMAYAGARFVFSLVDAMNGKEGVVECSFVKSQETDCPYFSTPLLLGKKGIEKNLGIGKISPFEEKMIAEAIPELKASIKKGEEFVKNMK
Protocol: Reagent Preparations & Assay Protocol: This assay was performed as described above for the GroEL/ES-dMDH refolding assay; however, the assay protocol differed in the sequence of compound addition to the assay plates. The refolding reactions were allowed to proceed for 45 min at 37° C. in the absence of test compounds (complete refolding of MDH occurs), then quenched with the EDTA stock. Compounds were then pin-transferred into the plates after the EDTA quenching step; thus, compounds effects are only possible by inhibiting the fully-refolded MDH reporter substrate. […] A340 nm measurements were recorded at 0.5 minutes (start point) and at successive time points until the amount of NADH consumed reached ˜90% (end point, generally between 20-35 minutes). Compounds were tested in 8-point, 3-fold dilution series (62.5 μM to 29 nM during the reporter reaction) in clear, flat-bottom 384-well microtiter plates. DMSO was used as a negative control, and previously discovered native MDH inhibitors were used as positive controls. […] Results presented represent the averages of IC50 values obtained from at least quadriplicate (duplicate of duplicate) replicates.

[4] = tested on: Pseudomonas aeruginosa (ATCC 10145); assay: Bacterial proliferation assay, P. aeruginosa; assay type: cell-based
From the text: as §1, §2, §3

[5] = tested on: Drug sensitive Staphylococcus aureus (ATCC 25923); assay: Bacterial proliferation assay, drug sensitive S. aureus; assay type: cell-based
From the text: as §1, §2, §3

[6] = ATCC13047, OD600 at 6-8 h, read-out: Bacterial Proliferation EC50 E. cloacae
[7] = ATCC13047, log of EC50 (μM scale), with standard deviation, read-out: log(EC50) Bacterial Proliferation Assay E. cloacae (converted)
[8] = ATCC13883, OD600 at 6-8 h, read-out: Bacterial Proliferation EC50 K. pneumoniae
[9] = ATCC13883, log of EC50 (μM scale), with standard deviation, read-out: log(EC50) Bacterial Proliferation Assay K. pneumoniae (converted)
[10] = log of IC50 (μM scale), with standard deviation, read-out: log(IC50) Native MDH Reporter (converted)
[11] = read-out: Biochemical Assay IC50 Native MDH Reporter
[12] = ATCC10145, OD600 at 6-8 h, read-out: Bacterial Proliferation EC50 P. aeruginosa
[13] = ATCC10145, log of EC50 (μM scale), with standard deviation, read-out: log(EC50) Bacterial Proliferation Assay P. aeruginosa (converted)
[14] = ATCC25923, OD600 at 6-8 h, read-out: Bacterial Proliferation EC50 S. aureus Sensitive
[15] = ATCC25923, log of EC50 (μM scale), with standard deviation, read-out: log(EC50) Bacterial Proliferation Assay S. aureus Sensitive (converted)
[16] = ATCC13047, read-out: Bacterial Proliferation EC50 E. cloacae
[17] = ATCC13047, read-out: log(EC50) Bacterial Proliferation Assay E. cloacae (converted)
[18] = ATCC13883, read-out: Bacterial Proliferation EC50 K. pneumoniae
[19] = ATCC13883, read-out: log(EC50) Bacterial Proliferation Assay K. pneumoniae (converted)
[20] = log of IC50 (μM scale), with standard deviation
[21] = ATCC10145, read-out: Bacterial Proliferation EC50 P. aeruginosa
[22] = ATCC10145, read-out: log(EC50) Bacterial Proliferation Assay P. aeruginosa (converted)
[23] = ATCC25923, read-out: Bacterial Proliferation EC50 S. aureus Sensitive
[24] = ATCC25923, read-out: log(EC50) Bacterial Proliferation Assay S. aureus Sensitive (converted)
[25] = ATCC25923, read-out: S. aureus Proliferation & Biofilm Assay EC50 Planktonic Growth

SMILES | IC50 [3, 10] [µM] | IC50 [3, 11] [µM] | EC50 [1, 16] [µM] | EC50 [1, 17] [µM] | EC50 [2, 18] [µM] | EC50 [2, 19] [µM] | inhibition of native MDH enzymatic activity (in words) [3] | EC50 [4, 21] [µM] | EC50 [4, 22] [µM] | EC50 [5, 23] [µM] | EC50 [5, 24] [µM] | also measured
CC1(C)S[C@@H]2[C@H](NC(=O)[C@H](N)c3ccccc3)C(=O)N2[C@H]1C(=O)O [Ampicillin, ampicillin, reference compound] | > 63.1 | > 63 | – | – | – | – | – | – | – | – | – | EC50 [1, 6]: > 100 µM; EC50 [1, 7]: > 100 µM; EC50 [2, 8]: > 100 µM; EC50 [2, 9]: > 100 µM; EC50 [4, 12]: > 100 µM; EC50 [4, 13]: > 100 µM; EC50 [5, 14]: 0.19 µM; EC50 [5, 15]: 0.195 µM
Cc1cc(C(C#N)c2ccc(Cl)cc2)c(Cl)cc1NC(=O)c1cc(I)cc(I)c1O (stereo not drawn) [Closantel, closantel, reference compound] | – | – | > 100 | > 100 | > 100 | > 100 | inhibit native MDH | > 100 | > 100 | 0.47 | 0.468 | log(IC50) Native MDH Reporter [3, 20]: 0.79 ± 0.17
O=C(Nc1ccc(Sc2nc3ccccc3s2)c(Cl)c1)c1cc(Br)cc(Br)c1O [Compound 1, N-(4-(Benzo[d]thiazol-2-ylthio)-3-chlorophenyl)-3,5-dibromo-2-hydroxybenzamide] | – | – | > 100 | > 100 | > 100 | > 100 | inhibit native MDH | > 100 | > 100 | 0.36 | 0.363 | log(IC50) Native MDH Reporter [3, 20]: 0.83 ± 0.25; EC50 [5, 25]: 0.36 µM
O=C(Nc1ccc(Sc2nc3ccccc3s2)c(Cl)c1)c1cccc(Br)c1O [Compound 2, N-(4-(Benzo[d]thiazol-2-ylthio)-3-chlorophenyl)-3-bromo-2-hydroxybenzamide] | > 63.1 | > 63 | > 100 | > 100 | > 100 | > 100 | inactive against the reporter enzymes | > 100 | > 100 | 0.45 | 0.457 | EC50 [5, 25]: 0.45 µM
O=C(Nc1ccc(Sc2nc3ccccc3s2)c(Cl)c1)c1cc(Br)ccc1O [Compound 3, N-(4-(Benzo[d]thiazol-2-ylthio)-3-chlorophenyl)-5-bromo-2-hydroxybenzamide] | > 63.1 | > 63 | > 100 | > 100 | > 100 | > 100 | inactive against the reporter enzymes | > 100 | > 100 | 0.12 | 0.117 | –
O=C(Nc1ccc(Sc2nc3ccccc3s2)c(Cl)c1)c1ccccc1O [Compound 4, N-(4-(Benzo[d]thiazol-2-ylthio)-3-chlorophenyl)-2-hydroxybenzamide] | > 63.1 | > 63 | – | – | – | – | – | – | – | – | – | EC50 [1, 6]: > 100 µM; EC50 [1, 7]: > 100 µM; EC50 [2, 8]: > 100 µM; EC50 [2, 9]: > 100 µM; EC50 [4, 12]: > 100 µM; EC50 [4, 13]: > 100 µM; EC50 [5, 14]: 0.31 µM; EC50 [5, 15]: 0.309 µM
O=C(Nc1ccc(Sc2nc3ccccc3s2)cc1)c1cc(Br)cc(Br)c1O [Compound 5, N-(4-(Benzo[d]thiazol-2-ylthio)phenyl)-3,5-dibromo-2-hydroxybenzamide] | – | – | > 100 | > 100 | > 100 | > 100 | inhibit native MDH | > 100 | > 100 | 0.44 | 0.437 | log(IC50) Native MDH Reporter [3, 20]: 0.92 ± 0.21; EC50 [5, 25]: 0.44 µM
O=C(Nc1ccc(Sc2nc3ccccc3s2)cc1)c1cccc(Br)c1O [Compound 6, N-(4-(Benzo[d]thiazol-2-ylthio)phenyl)-3-bromo-2-hydroxybenzamide] | > 63.1 | > 63 | > 100 | > 100 | > 100 | > 100 | inactive against the reporter enzymes | > 100 | > 100 | 0.76 | 0.759 | –
O=C(Nc1ccc(Sc2nc3ccccc3s2)cc1)c1cc(Br)ccc1O [Compound 7, N-(4-(Benzo[d]thiazol-2-ylthio)phenyl)-5-bromo-2-hydroxybenzamide] | > 63.1 | > 63 | > 100 | > 100 | > 100 | > 100 | inactive against the reporter enzymes | > 100 | > 100 | 0.12 | 0.12 | –
O=C(Nc1ccc(Sc2nc3ccccc3s2)cc1)c1ccccc1O [Compound 8, N-(4-(Benzo[d]thiazol-2-ylthio)phenyl)-2-hydroxybenzamide] | > 63.1 | > 63 | – | – | – | – | – | – | – | – | – | EC50 [1, 6]: > 100 µM; EC50 [1, 7]: > 100 µM; EC50 [2, 8]: > 100 µM; EC50 [2, 9]: > 100 µM; EC50 [4, 12]: > 100 µM; EC50 [4, 13]: > 100 µM; EC50 [5, 14]: 0.2 µM; EC50 [5, 15]: 0.204 µM
O=C(Nc1cccc(Cl)c1)c1cc(Br)cc(Br)c1O [Compound 9, 3,5-Dibromo-N-(3-chlorophenyl)-2-hydroxybenzamide] | 25.1 | 27 | 78 | 77.6 | 95 | 95.5 | – | > 100 | > 100 | 0.66 | 0.661 | –
